Laboratory results from patent publication US6902915B2, “Heat-stable D-aminoacylase” (Daicel Chemical Industries, Ltd., priority 2000, dated 2005).
Entries after “also recorded” stand apart in the source; their conditions may differ. One block for each compound: values may come before it.

Assays:
[1] = test system: D-aminoacylase derived from Streptomyces thermonitrificans; assay: Effect of metal salt for D-aminoacylase; format: biochemical; conditions: for Effect on enzyme activity (in words): 1 mM metal ion or EDTA
Description: (§1) The measurement of the enzyme activity was proceeded according to the TNBS method (Tokuyama, S., Hatano, K., and Takahashi, T., Biosci.Biotech.Biochem. 58:24(1994)). That is, the sample containing the amino acid was added to 0.5 ml of solution (C) (0.1 M Na2B4O7) to give a total volume of 1.0 ml. […] of 0.11 M TNBS solution was added with stirring immediately. The absorbance at 420 nm was measured after 5 minutes.
(§2) Various metal salt and various enzyme inhibitors were added to a concentration of 1 mM to the enzyme reaction, and measurement of the enzyme reaction was performed. The enzyme reaction was conducted in 50 mM Tris/HCl (pH 7.5) buffer (total volume of 500 μl). For the metal salt added reaction, 1 mM of each metal salt or EDTA was added to the standard reaction composition solution without the enzyme and was preincubated at 30° C. for 5 minutes, then enzyme was added to react at 30° C. for 60 minutes. For the enzyme inhibitor added reaction, the standard reaction solution without the substrate was preincubated at 5 minutes, then after adding 1 mM of each inhibitor […] the substrate was added, and the enzyme reaction was performed at 30° C. for 100 minutes. The relative activity was calculated taking activity of enzyme actions without addition of inhibitors as 100%.

[2] = test system: D-aminoacylase derived from Streptomyces thermonitrificans; assay: Substrate specificity of D-aminoacylase; format: biochemical; conditions: for Catalysis of the reaction with the substrate (in words): N-acetyl amino acid substrates; for Activity / Relative activity: substrate 20 mM; for Activity: 1 mM cobalt chloride, 50 mM Tris/HCl pH 7.5, 30° C., 60 minutes; for Relative activity: activity against N-acetyl-D-methionine taken as 100%
Description: The activity of the D-aminoacylase of the present invention can be tested by the following procedure. For example, an enzyme solution (100 μl) is mixed and incubated with 50 mM Tris-HCl (pH 7.5) buffer (total volume: 500 μl) containing 20 mM substrate (various N-acetyl-D-amino acids) at 30° C. for 60 minutes. By measuring the amounts of amino acid synthesized by this reaction, enzymatic activities for respective substrates can be compared with each other. Assay for amino acid is performed by the TNBS (trinitrobenzenesulfonic acid) method or the HPLC method.
as §1
D-methionine was measured colorimetrically using L-methionine as a standard, and the amount of enzyme-producing 1 μmol of D-methionine in 1 minute at 30° C. was determined 1 unit.
The substrate specificity of the enzyme of the present invention was compared taking the enzyme activity against N-acetyl-D-methionine as 100%. N-acetyl-D-valine, N-acetyl-D-phenylalanine, N-acetyl-D-leucine, N-acetyl-D-tryptophan, N-acetvl-D-alanine N-acetyl-L-methionine, N-acetyl-L-leucine, and N-acetyl-L-valine was used as the substrate for comparison. The enzyme activity was measured in a standard reaction solution (total volume of 500 μl containing 100 μl of enzyme solution, and 400 μl of 50 mM Tris/HCl (pH 7.5) containing 20 mM of each substrate and 1 mM cobalt chloride at 30° C. for 60 minutes. The substrate specificity for N-acetyls of D-methionine, D-leucine, D-valine, D-tryptophan, D-alanine and D-phenylalanine is depicted in Table 2.

[3] = test system: D-aminoacylase derived from Streptomyces thermonitrificans; assay: Effect of inhibitors against D-aminoacylase; format: biochemical; conditions: for Effect on enzyme activity (in words): SH reagents, 1 mM
Description: as §1, §2

[4] = in vivo; cited from earlier work
[5] = 1 mM metal salt or EDTA, 50 mM Tris/HCl pH 7.5, 30° C., 60 minutes
[6] = 1 mM metal salt or EDTA, no addition = 100%
[7] = 1 mM reagent, 50 mM Tris/HCl pH 7.5, 30° C., 100 minutes
[8] = 1 mM reagent, no addition = 100%

SMILES: [Cl][Sn][Cl] [SnCl2]
- Activity [1, 5]: 32.8 mU/ml
- Relative activity [1, 6]: 102%

- Activity [1, 5]: 25.2 mU/ml
- Relative activity [1, 6]: 90%
SMILES: O=S(=O)([O-])[O-].O=S(=O)([O-])[O-].O=S(=O)([O-])[O-].[Al+3].[Al+3] [Al2(SO4)2]

- Activity [2]: 8.93 mU/ml
- Relative activity [2]: 21%
SMILES: CC(=O)N[C@H](CC(C)C)C(=O)O [N-Ac-D-Leu, N-acetyl-D-leucine]
- Catalysis of the reaction with the substrate (in words) [2]: catalyzes; also recorded: catalytic actions

- Activity [2]: 0 mU/ml
- Relative activity [2]: 0%
SMILES: CC(=O)N[C@H](C(=O)O)C(C)C [N-Ac-L-Val, N-acetyl-L-valine]
- Catalysis of the reaction with the substrate (in words) [2]: didn't catalyze; also recorded: substantially no catalytic activity

- Activity [2]: 62.2 mU/ml
- Relative activity [2]: 144%
SMILES: CC(=O)N[C@H](Cc1ccccc1)C(=O)O [N-Ac-D-Phe, N-acetyl-D-phenylalanine]
- Catalysis of the reaction with the substrate (in words) [2]: efficiently catalyzes; also recorded: catalyze especially well

- Activity [2]: 14.7 mU/ml
- Relative activity [2]: 40%
SMILES: CC(=O)N[C@@H](C(=O)O)C(C)C [N-Ac-D-Val, N-acetyl-D-valine]
- Catalysis of the reaction with the substrate (in words) [2]: catalyzes; also recorded: catalytic actions

SMILES: [Cl-].[Cl-].[Mg+2] [MgCl2]
- Activity [1, 5]: 35.2 mU/ml
- Relative activity [1, 6]: 109%

SMILES: [Cl][Fe]([Cl])[Cl] [FeCl3]
- Activity [1, 5]: 22.0 mU/ml
- Relative activity [1, 6]: 68%

SMILES: O=S(=O)(F)Cc1ccccc1 [Phenylmethylsulfonyl fluoride]
- Activity [3, 7]: 29.5 mU/ml
- Relative activity [3, 8]: 70%

- Activity [3, 7]: 11.3 mU/ml
- Relative activity [3, 8]: 24%
SMILES: [I-].[K+] [KI]

SMILES: O=C(NNc1ccccc1)NNc1ccccc1 [1,5-Diphenylcarbonylhydrazide]
- Activity [3, 7]: 40.5 mU/ml
- Relative activity [3, 8]: 89%

- Activity [2]: 48.4 mU/ml
- Relative activity [2]: 105%
SMILES: CC(=O)N[C@H](Cc1c[nH]c2ccccc12)C(=O)O [N-Ac-D-Trp, N-acetyl-D-tryptophan]
- Catalysis of the reaction with the substrate (in words) [2]: efficiently catalyzes; also recorded: catalyze especially well

SMILES: [Cl][Co][Cl] [CoCl2, cobalt chloride]
- Effect on enzyme activity (in words) [1]: increased
- Activity [1, 5]: 54.4 mU/ml
- Relative activity [1, 6]: 168%

SMILES: [Cl][Ni][Cl] [NiCl2]
- Activity [1, 5]: 15.9 mU/ml
- Relative activity [1, 6]: 51%

- Activity [2]: 40.6 mU/ml
- Relative activity [2]: 100%
SMILES: CSCC[C@@H](NC(C)=O)C(=O)O [N-Ac-D-Met, N-acetyl-D-methionine]
- Catalysis of the reaction with the substrate (in words) [2]: efficiently catalyzes; also recorded: catalyze especially well

SMILES: CCN1C(=O)C=CC1=O [N-Ethylmaleimide]
- Activity [3, 7]: 1.3 mU/ml
- Relative activity [3, 8]: 3%
- Effect on enzyme activity (in words) [3]: inhibited

SMILES: O=C(O)CI [Monoiodoacetic acid]
- Relative activity [3]: 84%
- Activity ([3]; pH 7.5): 37.9 mU/ml

SMILES: [Cl-].[Na+] [NaCl]
- Relative activity [1]: 103%
- Activity ([1]; pH 7.5): 33.1 mU/ml

SMILES: c1ccc(-c2ccccn2)nc1 [2,2′-Bipyridyl]
- Activity [3, 7]: 21.9 mU/ml
- Relative activity [3, 8]: 49%

- Activity [2]: 16.9 mU/ml
- Relative activity [2]: 40%
SMILES: CC(=O)N[C@H](C)C(=O)O [N-Ac-D-Ala, N-acetyl-D-alanine]
- Catalysis of the reaction with the substrate (in words) [2]: catalyzes; also recorded: catalytic actions

- Activity [2]: 0 mU/ml
- Relative activity [2]: 0%
SMILES: CC(=O)N[C@@H](Cc1ccccc1)C(=O)O [N-Ac-L-Phe, N-acetyl-L-phenylalanine]
- Catalysis of the reaction with the substrate (in words) [2]: didn't catalyze; also recorded: substantially no catalytic activity

SMILES: [F-].[Na+] [NaF]
- Activity [3, 7]: 45.2 mU/ml
- Relative activity [3, 8]: 99%

SMILES: [Ca+2].[Cl-].[Cl-] [CaCl2]
- Activity [1, 5]: 31.1 mU/ml
- Relative activity [1, 6]: 97%

SMILES: [Cl-].[Cl-].[Zn+2] [ZnCl2]
- Activity [1, 5]: 22.2 mU/ml
- Relative activity [1, 6]: 68%

SMILES: [Cl][Cu][Cl] [CuCl2]
- Effect on enzyme activity (in words) [1]: markedly inhibited
- Activity [1, 5]: 1.0 mU/ml
- Relative activity [1, 6]: 3%

- Effect on enzyme activity (in words) [1]: inhibited
- Activity [1, 5]: 9.4 mU/ml
- Relative activity [1, 6]: 29%
SMILES: O=C(O)CN(CCN(CC(=O)O)CC(=O)O)CC(=O)O [EDTA]

SMILES: [Cl][Mn][Cl] [MnCl2]
- Activity [1, 5]: 21.0 mU/ml
- Relative activity [1, 6]: 65%

SMILES: O=C1CCC(N2C(=O)c3ccccc3C2=O)C(=O)N1 [L(S)-form, thalidomide]
- Teratogenic activity [4]: strong teratogenicity

SMILES: [Cl-].[K+] [KCl]
- Activity [1, 5]: 30.9 mU/ml
- Relative activity [1, 6]: 93%

SMILES: O=C(O)c1cc[c]([Hg][Cl])cc1 [p-Chloromercuribenzoic acid]
- Activity [3, 7]: 2.1 mU/ml
- Relative activity [3, 8]: 4%
- Effect on enzyme activity (in words) [3]: inhibited

SMILES: NO [Hydroxylammonium chloride]
- Relative activity [3]: 102%
- Activity [3, 7]: 46.5 mU/ml

SMILES: [Ba+2].[Cl-].[Cl-] [BaCl2]
- Activity [1, 5]: 30.6 mU/ml
- Relative activity [1, 6]: 95%

SMILES: O=C1CCC(N2C(=O)c3ccccc3C2=O)C(=O)N1 [D(R)-form thalidomide, thalidomide]
- Teratogenic activity [4]: no teratogenic activity

- Activity [3, 7]: 34.8 mU/ml
- Relative activity [3, 8]: 76%
SMILES: O[C@@H](CS)[C@@H](O)CS [DTT]

SMILES: [Cl][Fe][Cl] [FeCl2]
- Activity [1, 5]: 20.4 mU/ml
- Relative activity [1, 6]: 63%

- Activity [2]: 0 mU/ml
- Relative activity [2]: 0%
SMILES: CSCC[C@H](NC(C)=O)C(=O)O [N-Ac-L-Met, N-acetyl-L-methionine]
- Catalysis of the reaction with the substrate (in words) [2]: didn't catalyze; also recorded: substantially no catalytic activity
